Assay results published in PubChem BioAssay (NCI).
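Growth conditions: 96-well plates. Treatment: test compound, 48 hours, 5 concentrations. Analysis: linear interpolation between bracketing concentrations; unreached endpoints set to highest concentration. GI50 is the concentration that inhibits growth by half. At the TGI there is no net growth.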

Key:
Experiment in all cases: NCI-60 cell line screen, 48 h
[1] = tested on: 786-0 renal
[2] = tested on: A498 renal
[3] = tested on: A549 NSCLC
[4] = tested on: ACHN renal
[5] = tested on: BT-549 breast
[6] = tested on: CAKI-1 renal
[7] = tested on: CCRF-CEM leukemia
[8] = tested on: COLO 205 colon
[9] = tested on: DU-145 prostate
[10] = tested on: EKVX NSCLC
[11] = tested on: HCC-2998 colon
[12] = tested on: HCT-116 colon
[13] = tested on: HCT-15 colon
[14] = tested on: HL-60(TB) leukemia
[15] = tested on: HOP-62 NSCLC
[16] = tested on: HOP-92 NSCLC
[17] = tested on: HS 578T breast
[18] = tested on: HT29 colon
[19] = tested on: IGROV1 ovarian
[20] = tested on: K-562 leukemia
[21] = tested on: KM12 colon
[22] = tested on: LOX IMVI melanoma
[23] = tested on: M14 melanoma
[24] = tested on: MALME-3M melanoma
[25] = tested on: MCF7 breast
[26] = tested on: MDA-MB-231 breast
[27] = tested on: MDA-MB-435
[28] = tested on: MOLT-4 leukemia
[29] = tested on: NCI-H226 lung
[30] = tested on: NCI-H23 lung
[31] = tested on: NCI-H460 lung
[32] = tested on: NCI-H522 lung
[33] = tested on: NCI/ADR-RES ovarian
[34] = tested on: OVCAR-3 ovarian
[35] = tested on: OVCAR-4 ovarian
[36] = tested on: OVCAR-5 ovarian
[37] = tested on: OVCAR-8 ovarian
[38] = tested on: PC-3 prostate
[39] = tested on: RPMI-8226 leukemia
[40] = tested on: RXF 393 renal
[41] = tested on: SF-268 CNS
[42] = tested on: SF-295 CNS
[43] = tested on: SF-539 CNS
[44] = tested on: SK-MEL-2 melanoma
[45] = tested on: SK-MEL-28 melanoma
[46] = tested on: SK-MEL-5 melanoma
[47] = tested on: SK-OV-3 ovarian
[48] = tested on: SN12C renal
[49] = tested on: SNB-19 CNS
[50] = tested on: SNB-75 CNS
[51] = tested on: SR leukemia
[52] = tested on: SW-620 colon
[53] = tested on: T-47D breast
[54] = tested on: TK-10 renal
[55] = tested on: U251 CNS
[56] = tested on: UACC-257 melanoma
[57] = tested on: UACC-62 melanoma
[58] = tested on: UO-31 renal

O=C(/C=C/c1ccccc1Cl)c1ccc(O)cc1 was tested, and the GI50 [1] was 15.8 µM, the TGI [1] was 30 µM and the GI50 [2] was 8.46 µM. The TGI [2] was 21.6 µM, the GI50 [3] was 7.33 µM and the TGI [3] was 25.1 µM. The GI50 [4] was 6.99 µM, the TGI [4] was 19.2 µM and the GI50 [5] was 2.3 µM. The TGI [5] was 6.76 µM, the GI50 [6] was 6.87 µM and the TGI [6] was 20.2 µM. For the same compound, the GI50 [7] was 6.18 µM, the TGI [7] was 35 µM and the GI50 [8] was 12.8 µM. It also gave a TGI [8] of 34.8 µM, a GI50 [9] of 4.16 µM and a TGI [9] of 13.1 µM. It also gave a GI50 [10] of 10 µM, a TGI [10] of 25.8 µM and a GI50 [11] of 12.7 µM. The TGI [11] was 26.7 µM, the GI50 [12] was 2.98 µM and the TGI [12] was 10.8 µM. It also gave a GI50 [13] of 2.48 µM, a TGI [13] of 11.1 µM and a GI50 [14] of 3.22 µM. For the same compound, the TGI [14] was over 23.2 µM, the GI50 [15] was 20.4 µM and the TGI [15] was 37.3 µM. It also gave a GI50 [16] of 6.75 µM, a TGI [16] of 23.7 µM and a GI50 [17] of 2.33 µM. It also gave a TGI [17] of 7.19 µM, a GI50 [18] of 4.72 µM and a TGI [18] of 17.4 µM. The GI50 [19] was 2.25 µM, the TGI [19] was 5.25 µM and the GI50 [20] was 3.12 µM. It also gave a TGI [20] of over 100 µM, a GI50 [21] of 3.57 µM and a TGI [21] of 11.6 µM. The GI50 [22] was 3.09 µM, the TGI [22] was 10.3 µM and the GI50 [23] was 10.6 µM. It also gave a TGI [23] of 24.6 µM, a GI50 [24] of 16.3 µM and a TGI [24] of 31.1 µM. For the same compound, the GI50 [25] was 2.45 µM, the TGI [25] was 7.54 µM and the GI50 [26] was 13.6 µM. For the same compound, the TGI [26] was 31 µM, the GI50 [27] was 4.23 µM and the TGI [27] was 17.6 µM. For the same compound, the GI50 [28] was 5.64 µM, the TGI [28] was over 57.6 µM and the GI50 [29] was 15.2 µM. The TGI [29] was 42.8 µM, the GI50 [30] was 10.6 µM and the TGI [30] was 31.5 µM. The GI50 [31] was 4.4 µM, the TGI [31] was 16.8 µM and the GI50 [32] was 9.33 µM. For the same compound, the TGI [32] was 23.9 µM, the GI50 [33] was 16.4 µM and the TGI [33] was over 70.6 µM. It also gave a GI50 [34] of 3.46 µM, a TGI [34] of 9.22 µM and a GI50 [35] of 10.6 µM. For the same compound, the TGI [35] was 24.9 µM, the GI50 [36] was 19.8 µM and the TGI [36] was 37.4 µM. It also gave a GI50 [37] of 8.3 µM, a TGI [37] of 26.3 µM and a GI50 [38] of 5.65 µM. For the same compound, the TGI [38] was 26.5 µM, the GI50 [39] was 0.495 µM and the TGI [39] was 3.39 µM. The GI50 [40] was 1.97 µM, the TGI [40] was 5.59 µM and the GI50 [41] was 8.91 µM. For the same compound, the TGI [41] was 25.3 µM, the GI50 [42] was 8.97 µM and the TGI [42] was 23.7 µM. For the same compound, the GI50 [43] was 5.22 µM, the TGI [43] was 12.2 µM and the GI50 [44] was 15 µM. The TGI [44] was 31.2 µM, the GI50 [45] was 11 µM and the TGI [45] was 23 µM. For the same compound, the GI50 [46] was 9.57 µM, the TGI [46] was 23.4 µM and the GI50 [47] was 12.1 µM. For the same compound, the TGI [47] was 25.9 µM, the GI50 [48] was 8.51 µM and the TGI [48] was 33.1 µM. It also gave a GI50 [49] of 6.95 µM, a TGI [49] of 19.6 µM and a GI50 [50] of 10.6 µM. For the same compound, the TGI [50] was 24.5 µM, the GI50 [51] was 2.82 µM and the TGI [51] was over 24.4 µM. For the same compound, the GI50 [52] was 2.89 µM, the TGI [52] was 7.88 µM and the GI50 [53] was 6.38 µM. It also gave a TGI [53] of 25.9 µM, a GI50 [54] of 18.1 µM and a TGI [54] of 32.4 µM. The GI50 [55] was 3.41 µM, the TGI [55] was 12.7 µM and the GI50 [56] was 9.79 µM. The TGI [56] was 22.5 µM, the GI50 [57] was 7.88 µM and the TGI [57] was 21.8 µM. The GI50 [58] was 4.85 µM and the TGI [58] was 14 µM.
Compound COc1cccc(C2=NN(C(C)=O)C(c3cc(OC)c(OC)c(OC)c3)C2)c1 (stereo unspecified) has a GI50 [1] of 2.63 µM, a TGI [1] of over 20.6 µM and a GI50 [2] of 6.44 µM. It also gave a TGI [2] of over 30 µM, a GI50 [3] of 6.15 µM and a TGI [3] of over 100 µM. For the same compound, the GI50 [4] was 16 µM, the TGI [4] was over 100 µM and the GI50 [5] was 5.57 µM. For the same compound, the TGI [5] was over 100 µM, the GI50 [6] was 2.79 µM and the TGI [6] was over 100 µM. The GI50 [7] was 0.921 µM, the TGI [7] was 5.61 µM and the GI50 [8] was 3.35 µM. For the same compound, the TGI [8] was 12.3 µM, the GI50 [9] was 2.87 µM and the TGI [9] was over 100 µM. For the same compound, the GI50 [10] was 4.96 µM, the TGI [10] was over 100 µM and the GI50 [11] was 2.26 µM. The TGI [11] was 16 µM, the GI50 [12] was 2.59 µM and the TGI [12] was over 100 µM. For the same compound, the GI50 [13] was 1.42 µM, the TGI [13] was over 100 µM and the GI50 [14] was 1.55 µM. For the same compound, the TGI [14] was 6.51 µM, the GI50 [15] was 0.827 µM and the GI50 [16] was 14.9 µM. The TGI [16] was over 100 µM, the GI50 [17] was 1.36 µM and the TGI [17] was 5.11 µM. The GI50 [18] was 3.1 µM, the TGI [18] was over 100 µM and the GI50 [19] was 4.08 µM. The TGI [19] was over 72.1 µM, the GI50 [20] was 0.9 µM and the TGI [20] was over 84.5 µM. It also gave a GI50 [21] of 1.48 µM, a TGI [21] of over 100 µM and a GI50 [22] of 7.22 µM. The TGI [22] was over 100 µM, the GI50 [23] was 1.47 µM and the TGI [23] was over 100 µM. It also gave a GI50 [24] of 2.47 µM, a TGI [24] of over 100 µM and a GI50 [25] of 0.529 µM. It also gave a TGI [25] of over 32.3 µM, a GI50 [26] of 8.82 µM and a TGI [26] of over 100 µM. For the same compound, the GI50 [27] was 0.224 µM, the TGI [27] was 0.782 µM and the GI50 [28] was 3.67 µM. The TGI [28] was over 100 µM, the GI50 [29] was over 100 µM and the TGI [29] was over 100 µM. It also gave a GI50 [30] of 3.48 µM, a TGI [30] of over 100 µM and a GI50 [31] of 2.14 µM. It also gave a TGI [31] of 11.2 µM, a GI50 [32] of 3.97 µM and a TGI [32] of over 66.3 µM. It also gave a GI50 [33] of 1.9 µM, a TGI [33] of over 20.1 µM and a GI50 [34] of 1.09 µM. It also gave a TGI [34] of 3.8 µM, a GI50 [35] of 6.88 µM and a TGI [35] of over 100 µM. The GI50 [36] was 8.09 µM, the TGI [36] was over 100 µM and the GI50 [37] was 5.1 µM. The TGI [37] was over 100 µM, the GI50 [38] was 1.71 µM and the TGI [38] was over 100 µM. It also gave a GI50 [39] of 1.08 µM, a TGI [39] of 4.36 µM and a GI50 [40] of 4.02 µM. For the same compound, the TGI [40] was over 100 µM, the GI50 [41] was 10.8 µM and the TGI [41] was over 100 µM. The GI50 [42] was 0.576 µM, the TGI [42] was 3.98 µM and the GI50 [43] was 2.81 µM. The TGI [43] was over 25.7 µM, the GI50 [44] was 23.8 µM and the TGI [44] was over 100 µM. For the same compound, the GI50 [45] was over 22.8 µM, the TGI [45] was over 100 µM and the GI50 [46] was 0.829 µM. The TGI [46] was 10.2 µM, the GI50 [47] was 3.04 µM and the TGI [47] was over 47.7 µM. It also gave a GI50 [48] of 5.69 µM, a TGI [48] of over 100 µM and a GI50 [49] of 3.18 µM. It also gave a TGI [49] of over 100 µM, a GI50 [50] of 1.73 µM and a TGI [50] of over 100 µM. The GI50 [51] was 0.437 µM, the TGI [51] was over 100 µM and the GI50 [52] was 0.668 µM. The TGI [52] was over 100 µM, the GI50 [53] was 4.49 µM and the TGI [53] was over 100 µM. For the same compound, the GI50 [54] was 25.8 µM, the TGI [54] was over 100 µM and the GI50 [55] was 3.37 µM. For the same compound, the TGI [55] was over 100 µM, the GI50 [56] was over 100 µM and the TGI [56] was over 100 µM. It also gave a GI50 [57] of 3.85 µM, a TGI [57] of over 100 µM and a GI50 [58] of 7.65 µM. The TGI [58] was over 100 µM.
